The structures appear in SMILES notation. Structures can show the parent of a compound that is named as a salt.

This test has as its target EGFR WT (Homo sapiens (Human), UniProt P00533). In words: ErbB enzyme assay (CisBio HTRF-KinEASE-TK), EGFR WT. Conditions: ATP at Km (25 μM), 1 h incubation. Format: biochemical. The procedure: In vitro enzyme assays based on CisBio HTRF-KinEASE-TK technology were used to determine compound potencies. […]. Compounds were prepared as a three-fold serial dilution in DMSO and added to the assay to give the appropriate final concentration. After a 1 h incubation at ambient temperature, the reaction was quenched by adding 10 μL of 62.5 nM Sa-XL665 and 0.25×TK-Ab-Cryptate in HTRF detection buffer (all from CisBio, part of cat #62TKOPEC). After another 1 h incubation at ambient temperature, the extent of substrate phosphorylation was determined using a PerkinElmer EnVision multimode plate reader via time-resolved fluorescence dual wavelength detection. The percent of control (POC) was calculated using the ratio of emission at […] to the emission at 620 nm. One hundred POC was determined using DMSO only controls (no test compounds present) and zero POC was determined using pre-quenched controls reactions. A 4-parameter logistic equation was fit to the POC values as a function of the test compound concentration and the IC50 value was determined as the point where the curve crossed 50 POC.

Chain of EGFR WT (P00533 25-1210): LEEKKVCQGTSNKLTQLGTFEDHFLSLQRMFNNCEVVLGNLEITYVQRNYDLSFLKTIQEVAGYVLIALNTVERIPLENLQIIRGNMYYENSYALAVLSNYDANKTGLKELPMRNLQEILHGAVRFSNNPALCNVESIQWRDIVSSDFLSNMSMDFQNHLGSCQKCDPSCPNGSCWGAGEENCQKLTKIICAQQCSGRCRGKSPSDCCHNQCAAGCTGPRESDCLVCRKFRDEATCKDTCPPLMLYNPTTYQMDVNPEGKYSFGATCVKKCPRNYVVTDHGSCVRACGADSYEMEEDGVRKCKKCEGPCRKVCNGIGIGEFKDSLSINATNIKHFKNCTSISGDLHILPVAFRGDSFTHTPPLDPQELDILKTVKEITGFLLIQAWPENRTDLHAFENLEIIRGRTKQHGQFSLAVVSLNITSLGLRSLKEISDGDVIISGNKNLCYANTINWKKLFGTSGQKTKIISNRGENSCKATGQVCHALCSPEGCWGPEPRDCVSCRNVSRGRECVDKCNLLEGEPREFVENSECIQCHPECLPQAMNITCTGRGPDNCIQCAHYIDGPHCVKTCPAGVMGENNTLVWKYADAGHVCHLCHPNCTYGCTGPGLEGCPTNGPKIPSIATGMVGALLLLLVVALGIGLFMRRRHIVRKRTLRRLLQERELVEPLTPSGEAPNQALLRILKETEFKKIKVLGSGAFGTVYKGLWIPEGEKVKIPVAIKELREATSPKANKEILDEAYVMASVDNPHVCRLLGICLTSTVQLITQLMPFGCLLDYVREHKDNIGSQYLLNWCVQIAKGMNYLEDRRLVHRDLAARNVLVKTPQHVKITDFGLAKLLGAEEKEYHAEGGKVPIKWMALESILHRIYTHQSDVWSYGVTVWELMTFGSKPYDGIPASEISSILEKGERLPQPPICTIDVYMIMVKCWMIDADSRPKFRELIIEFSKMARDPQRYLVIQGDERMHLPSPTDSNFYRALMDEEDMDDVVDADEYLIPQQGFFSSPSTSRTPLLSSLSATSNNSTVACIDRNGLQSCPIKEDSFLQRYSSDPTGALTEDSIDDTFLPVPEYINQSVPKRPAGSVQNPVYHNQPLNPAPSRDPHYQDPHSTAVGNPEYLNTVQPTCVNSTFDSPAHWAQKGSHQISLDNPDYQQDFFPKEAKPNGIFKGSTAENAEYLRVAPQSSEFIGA

As a reminder, the IC50 is the concentration that inhibits the measured activity by half. Low values mean greater potency, high ones weaker potency. Molecule `C=CC(=O)N1C2CCC1CN(c1ncc3ncnc(Nc4ccc(Oc5ccc6c(c5)nnn6C)c(C)c4)c3n1)C2` [Compound 47, 1-(3-(8-((3-methyl-4-((1-methyl-1H-benzo[d][1,2,3]triazol-5-yl)oxy)phenyl)amino)pyrimido[5,4-d]pyrimidin-2-yl)-3,8-diazabicyclo[3.2.1]octan-8-yl)prop-2-en-1-one] yielded a 50% inhibitory concentration (IC50) of 100 to 500 nM. On to `C=CC(=O)N1CCN(c2ncc3ncnc(Nc4ccc(Oc5ccc6c(c5)nnn6C)c(C)c4)c3n2)C[C@@H]1CF` (single isomer, unassigned) [Compound 199], for which the half-maximal inhibitory concentration (IC50) is below 50 nM.

`C=CC(=O)N1CCN(c2ncc3ncnc(Nc4cc(C)c(Oc5cc(F)c6c(c5)ncn6C)cc4OC)c3n2)C[C@H]1C` [Compound 41, (R)-1-(4-(8-((4-((7-fluoro-1-methyl-1H-benzo[d]imidazol-5-yl)oxy)-2-methoxy-5-methylphenyl)amino)pyrimido[5,4-d]pyrimidin-2-y1)-2-methylpiperazin-1-y1)prop-2-en-1-one] showed an IC50 of 100 to 500 nM. The figure for `C=CC(=O)N1CCN(c2ccc3ncnc(Nc4ccc(Oc5ccc6c(c5)nnn6C)c(C)c4)c3n2)CC1CF` (stereo not shown) [Compound 313, 1-(2-(fluoromethyl)-4-(4-((3-methyl-4-((1-methyl-1H-benzo[d][1,2,3]triazol-5-yl)oxy)phenyl)amino)pyrido[3,2-d]pyrimidin-6-yl)piperazin-1-yl)prop-2-en-1-one] is below 50 nM; for `C=CC(=O)N1CCN(c2ccc3ncnc(Nc4c(OC)cc(Oc5cc(F)c6c(c5)ncn6C)c(C)c4F)c3n2)C[C@H]1C` [Compound 257, (R)-1-(4-(4-((2-fluoro-4-((7-fluoro-1-methyl-1H-benzo[d]imidazol-5-yl)oxy)-6-methoxy-3-methylphenyl)amino)pyrido[3,2-d]pyrimidin-6-yl)-2-methylpiperazin-1-yl)prop-2-en-1-one] it is below 50 nM. With `C=CC(=O)N1CCN(c2ncc3ncnc(Nc4ccc(Oc5ccc6c(c5)nnn6C)c(C)c4F)c3n2)CC12CC2` [Compound 8, 1-(7-(8-((2-fluoro-3-methyl-4-((1-methyl-1H-benzo[d][1,2,3]triazol-5-yl)oxy)phenyl)amino)pyrimido [5,4-d]pyrimidin-2-yl)-4,7-diazaspiro[2.5]octan-4-yl)prop-2-en-1-one] the figure was below 50 nM. The figure for `C=CC(=O)N1CCN(c2ncc3ncnc(Nc4ccc(Oc5ccc6c(c5)ncn6C(F)F)c(C)c4)c3n2)CC1` [Compound 30, 1-(4-(8-((4-((1-(difluoromethyl)-1H-benzo[d]imidazol-5-yl)oxy)-3-methylphenyl)amino)pyrimido[5,4-d]pyrimidin-2-y1)piperazin-1-yl)prop-2-en-1-one] is 50 to 100 nM; for `C=CC(=O)N1CCN(c2ncc3ncnc(Nc4ccc(Oc5cc6ncnn6cc5C)c(C)c4)c3n2)C[C@H]1C` [Compound 182] it is 500 to 1000 nM.

Regarding `C=CC(=O)N[C@H]1C[C@@H](C)CN(c2ccc3ncnc(Nc4ccc(Oc5ccc6c(c5)nnn6C)c(C)c4F)c3n2)C1` (single isomer, unassigned) [Compound 337], the IC50 lay within 100 to 500 nM.

`C=CC(=O)N1CCN(c2ccc3ncnc(Nc4cc(C)c(Oc5ccc6c(c5)nnn6C)cc4OC(F)F)c3n2)C[C@H]1C` [Compound 302, (R)-1-(4-(4-((2-(difluoromethoxy)-5-methyl-4-((1-methyl-1H-benzo[d][1,2,3]triazol-5-yl)oxy)phenyl)amino)pyrido[3,2-d]pyrimidin-6-yl)-2-methylpiperazin-1-yl)prop-2-en-1-one] showed a 50% inhibitory concentration (IC50) of 100 to 500 nM.

`C=CC(=O)N[C@@H]1CCCN(c2ncc3ncnc(Nc4ccc(Oc5ccc6c(c5)nnn6C)c(C)c4F)c3n2)CC1` [Compound 172, (R)-N-(1-(8-((2-fluoro-3-methyl-4-((1-methyl-1H-benzo[d][1,2,3]triazol-5-yl)oxy)phenyl)amino)pyrimido[5,4-d]pyrimidin-2-yl)azepan-4-yl)acrylamide] registered a 50% inhibitory concentration (IC50) of at least 1000 nM. In turn, `Cc1cc(Nc2ncnc3cnc(N4CCN(C(=O)/C=C/C(F)(F)F)CC4)nc23)ccc1Oc1ccc2c(c1)nnn2C` [Compound 217, 4,4,4-trifluoro-1-(4-(8-((3-methyl-4-((1-methyl-1H-benzo[d][1,2,3]triazol-5-yl)oxy)phenyl)amino)pyrimido [5,4-d]pyrimidin-2-yl)piperazin-1-yl) but-2-en-1-one] came in with a concentration for half-maximal inhibition (IC50) below 50 nM. Turning to `C=CC(=O)N1CCN(c2ccc3ncnc(Nc4cc(C)c(Oc5ccn6ncnc6c5)cc4OC)c3n2)CC1` [Compound 371, 1-(4-(4-((4-([1,2,4]triazolo[1,5-a]pyridin-7-yloxy)-2-methoxy-5-methylphenyl)amino)pyrido[3,2-d]pyrimidin-6-yl)piperazin-1-yl)prop-2-en-1-one], the IC50 is 50 to 100 nM.

On to `C=CC(=O)N1C2C=C(c3ccc4ncnc(Nc5ccc(Oc6ccc7c(c6)nnn7C)c(C)c5)c4n3)CC1COC2` (stereo not shown) [Compound 408, 1-(7-(4-((3-methyl-4-((1-methyl-1H-benzo[d][1,2,3]triazol-5-yl)oxy)phenyl)amino)pyrido[3,2-d]pyrimidin-6-yl)-3-oxa-9-azabicyclo[3.3.1]non-6-en-9-yl)prop-2-en-1-one trifluoroacetate], for which the IC50 was in the range of 100 to 500 nM.

`C=CC(=O)N1CCN(c2ncc3ncnc(Nc4ccc(Oc5cc(F)c6c(c5)ncn6C)c(C)c4F)c3n2)CC[C@@H]1C` [Compound 181, (S)-1-(4-(8-((2-fluoro-4-((7-fluoro-1-methyl-1H-benzo[d]imidazol-5-yl)oxy)-3-methylphenyl)amino)pyrimido[5,4-d]pyrimidin-2-y1)-7-methyl-1,4-diazepan-1-yl)prop-2-en-1-one]: the concentration for half-maximal inhibition (IC50) was below 50 nM. In turn, `C=CC(=O)N[C@H]1CCN(c2ncc3ncnc(Nc4ccc(Oc5ccc6c(c5)nnn6C)c(C)c4)c3n2)C1` [Compound 154, (S)-N-(1-(8-((3-methyl-4-((1-methyl-1H-benzo[d][1,2,3]triazol-5-yl)oxy)phenyl)amino)pyrimido [5,4-d]pyrimidin-2-yl)pyrrolidin-3-yl)acrylamide] returned an IC50 of 100 to 500 nM. Consider `C=CC(=O)N1CCN(c2ccc3ncnc(Nc4ccc(Oc5ccc6c(c5)nnn6C)c(C)c4)c3n2)C2CC21` (stereo not shown) [Compound 75, 1-(5-(4-((3-methyl-4-((1-methyl-1H-benzo[d][1,2,3]triazol-5-yl)oxy)phenyl)amino)pyrido[3,2-d]pyrimidin-6-yl)-2,5-diazabicyclo[4.1.0]heptan-2-yl)prop-2-en-1-one], for which the half-maximal inhibitory concentration (IC50) was below 50 nM. Take `C=CC(=O)N[C@H]1CCN(c2ccc3ncnc(Nc4ccc(Oc5ccc6c(c5)nnn6C)c(C)c4F)c3n2)C[C@@H]1F` [Compound 280, N-((3S,4S)-3-fluoro-1-(4-((2-fluoro-3-methyl-4-((1-methyl-1H-benzo[d][1,2,3]triazol-5-yl)oxy)phenyl)amino)pyrido[3,2-d]pyrimidin-6-yl)piperidin-4-yl)acrylamide]: the IC50 fell in the range of 100 to 500 nM.

For the molecule `C=CC(=O)N1CCC(Oc2ncc3ncnc(Nc4ccc(Oc5cc(F)c6c(c5)nnn6C)c(C)c4)c3n2)CC1` [Compound 106, 1-(4-((8-((4-((7-fluoro-1-methyl-1H-benzo[d][1,2,3]triazol-5-yl)oxy)-3-methylphenyl)amino)pyrimido[5,4-d]pyrimidin-2-yl)oxy)piperidin-1-yl)prop-2-en-1-one], the half-inhibitory concentration (IC50) is below 50 nM. `C=C(F)C(=O)N1CC2CCC1CN2c1ncc2ncnc(Nc3ccc(Oc4ccc5c(c4)nnn5C)c(C)c3)c2n1` (stereo not shown) [Compound 50, 2-fluoro-1-(5-(8-((3-methyl-4-((1-methyl-1H-benzo[d][1,2,3]triazol-5-yl)oxy)phenyl)amino)pyrimido[5,4-d]pyrimidin-2-yl)-2,5-diazabicyclo[2.2.2]octan-2-yl)prop-2-en-1-one] came in with an IC50 of at least 1000 nM.

Turning to `C=CC(=O)N1CCN(c2ccc3ncnc(Nc4cc(C)c(Oc5ccn6ncnc6c5)cc4OC)c3n2)C[C@H]1C` [Compound 318, (R)-1-(4-(4-((4-([1,2,4]triazolo[1,5-a]pyridin-7-yloxy)-2-methoxy-5-methylphenyl)amino)pyrido[3,2-d]pyrimidin-6-yl)-2-methylpiperazin-1-yl)prop-2-en-1-one], the IC50 was below 50 nM. The molecule `C=CC(=O)N[C@@H]1CN(c2ncc3ncnc(Nc4ccc(Oc5ccc6c(c5)nnn6C)c(C)c4F)c3n2)CC[C@H]1C` [Compound 230, N-((3S,4R)-1-(8-((2-fluoro-3-methyl-4-((1-methyl-1H-benzo[d][1,2,3]triazol-5-yl)oxy)phenyl)amino)pyrimido[5,4-d]pyrimidin-2-yl)-4-methylpiperidin-3-yl)acrylamide] had a half-maximal inhibitory concentration (IC50) of 100 to 500 nM. `C=CC(=O)N1CC2(C1)CN(c1ncc3ncnc(Nc4ccc(Oc5ccc6c(c5)nnn6C)c(C)c4F)c3n1)C2` [Compound 23, 1-(6-(8-((2-fluoro-3-methyl-4-((1-methyl-1H-benzo[d][1,2,3]triazol-5-yl)oxy)phenyl)amino)pyrimido [5,4-d]pyrimidin-2-yl)-2,6-diazaspiro[3.3]heptan-2-yl)prop-2-en-1-one] registered an IC50 of at least 1000 nM. With `C=CC(=O)N[C@H]1CN(c2ccc3ncnc(Nc4ccc(Oc5ccc6c(c5)nnn6C)c(C)c4)c3n2)C[C@@H]1F` [Compound 276, N-((3S,4S)-4-fluoro-1-(4-((3-methyl-4-((1-methyl-1H-benzo[d][1,2,3]triazol-5-yl)oxy)phenyl)amino)pyrido[3,2-d]pyrimidin-6-yl)pyrrolidin-3-yl)acrylamide], the IC50 lay in the range of 100 to 500 nM.

In the case of `C=CC(=O)N1CCC(Oc2ncc3ncnc(Nc4ccc(Oc5ccn6ncnc6c5)c(C)c4)c3n2)CC1` [Compound 376, 1-(4-((8-((4-([1,2,4]triazolo[1,5-a]pyridin-7-yloxy)-3-methylphenyl)amino)pyrimido[5,4-d]pyrimidin-2-yl)oxy)piperidin-1-yl)prop-2-en-1-one], the IC50 is 100 to 500 nM.

For the origin of these results see patent US20250129078A1, “ERBB2 INHIBITORS” (Cogent Biosciences, Inc., priority 2023, published 2025).
